Source: patent US9981983B2, “Thienopyranones as kinase inhibitors” (SignalRx Pharmaceuticals, Inc., priority 2008, dated 2018)
Like-named read-outs stand apart in the source and are kept apart here. Blank lines part the entries; values can stand above or below the compound they belong to.

How the values were obtained:
[1] = tested on: BT-474 cells; test: Cellular proliferation (Example B method), BT-474; assay type: cell-based; conditions: Homo sapiens; BT-474, breast cancer
Procedure: (§1) PC3 cells were obtained from the American Type Culture Collection (ATCC, Manassas, Va., Cat.# CRL-1435) Two thousand cells from the prostate cancer line PC3 were placed in 50 μL of complete RPMI 1640 media (Invitrogen, Carlsbad, Calif., Cat.#22400-105) with 10% fetal bovine serum (Invitrogen, Carlsbad, Calif., Cat.#10438-026) into each well of 96 well cell culture plates in a hexaplicate sampling pattern. A 50 μL aliquot of test compound (prepared from stock test compounds in DMSO diluted into media) was added to the appropriate well such that the final concentrations of test compound were 200, 40, 8, 1.6, 0.32, 0.064, 0.0128, 0.00256, and 0 μM and the final DMSO concentration was less than or equal to 0.2%.
(§2) The plates were incubated for 72 hours 37° C. in an atmosphere of 5% CO2. At the end of this time a 10 μL aliquot of WST solution (Roche Applied Science, Mannheim, Germany) was added into each of the wells. Cells were exposed to the WST solution for 4 hours. A SpectraMax Plus spectrophotometric plate reader (Molecular Devices, Sunnydale, Calif.) was then used to measure the optical density at 450 nm (OD450 nm). Sigmoidal curves were drawn for the dose responses and IC50 values were calculated using the software package GraphPad Prism4 (GraphPad Software, Inc., San Diego, Calif.).
(§3) Several other cancer cell lines were obtained from ATCC and grown according to their recommendations and treated with test compounds to obtain the concentration of test compound that inhibited the cellular proliferation by 50% of no-treatment controls. These IC50 values (μM) are listed in Table 7 below obtained by the methods described in Example B: […]

[2] = tested on: pAKT in BT-474 cells; test: pAKT status DM50, BT-474; assay type: cell-based; conditions: Homo sapiens; BT-474, breast cancer
Procedure: (§4) PC3 cells were obtained from the American Type Culture Collection (ATCC, Manassas, Va., Cat.# CRL-1435). Two million cells from the prostate cancer line PC3 were placed into 6 cm culture dishes and allowed to grow in complete RPMI 1640 media (Invitrogen, Carlsbad, Calif., Cat.#22400-105) with 10% fetal bovine serum (Invitrogen, Carlsbad, Calif., Cat.#10438-026). After this time period the cells were serum starved for 5 hours followed by application of the test compound. Test compound was added as a DMSO (dimethyl sulfoxide) solution such that the final DMSO concentration in the cell media was less than or equal to 0.2% by volume After 30 minutes of exposure the growth factor stimulant, human IGF-1 (PeproTech, Inc., Rocky Hill, N.J., Cat.#100-11), was added to a final concentration of 0.1 μg/ml in each well. After 30 minutes of IGF-1 exposure, cells were removed from the media and cell lysates were prepared using RIPA Lysis buffer (Upstate, Lake Placid, N.Y., Cat.#20-188), keeping on ice. The pAKT serine 473 level was measured in duplicate samples of the cell lysates using commercially available assays such as the Pathscan® Sandwich ELISA kit for Ser473 pAKT (Cell Signaling, Danvers, Mass., Cat.#7160). A SpectraMax Plus spectrophotometric plate reader (Molecular Devices, Sunnydale, Calif.) was used to measure the optical density signal for pAKT at 450 nm (OD450 nm). The pAKT OD450 nm readings were normalized by total protein amount in the cell lysates determined by standard methods.
(§5) Concentrations of test compounds required to inhibit IGF stimulated pAKT levels to 50% of maximum levels in PC3 cells (termed DM50 for decreased maximum 50%) were calculated by inputting the dose responses in the software package GraphPad Prism4 (GraphPad Software, Inc., San Diego, Calif.).
(§6) Several other cancer cell lines were obtained from ATCC and grown according to the supplier's recommendations and treated with test compounds. DM50 values listed in Table 6 below were obtained by the methods described in Example A: […]

[3] = tested on: pAKT serine 473 level in PC3 cells; test: pAKT status in IGF-1 stimulated PC3 cells (Ser473 pAKT ELISA); assay type: cell-based; conditions: Homo sapiens, PC-3
Procedure: as §4, §5
By these methods a number of compounds of the invention were evaluated and the concentration needed to reduce the detectable pAKT to 50% of the maximal uninhibited signal was calculated. These values (in μMolar units) are listed in Table 8 under the column heading PC3 pAKT IC50 (μMolar).

[4] = tested on: pAKT in H1299 cells; test: pAKT status DM50, H1299; assay type: cell-based; conditions: Homo sapiens, NCI-H1299; H1299, non-small cell lung cancer
Procedure: as §4, §5, §6

[5] = tested on: pAKT in 786-O cells; test: pAKT status DM50, 786-O; assay type: cell-based; conditions: Homo sapiens, 786-0, renal cell carcinoma
Procedure: as §4, §5, §6

[6] = molecular target: mTOR (Homo sapiens, UniProt P42345); test: mTOR inhibition; assay type: biochemical
[7] = tested on: 786-O cells; test: Cellular proliferation (Example B method), 786-O; assay type: cell-based; conditions: Homo sapiens, 786-0, renal cell carcinoma
Procedure: as §1, §2, §3

[8] = tested on: H1299 cells; test: Cellular proliferation (Example B method), H1299; assay type: cell-based; conditions: Homo sapiens, NCI-H1299; H1299, non-small cell lung cancer
Procedure: as §1, §2, §3

[9] = tested on: 786-0 cells; test: Apoptosis in 786-0 cells (Annexin V / PI flow cytometry); assay type: cell-based; design: unit not given here; conditions: overnight
Procedure: In order to evaluate the mechanism of action of these compounds, 786-0 cell cultures were treated with Cpd 9 or Cpd 28 at different concentrations overnight and then analyzed for apoptotic induction. The cells were stained using standard methods with Annexin V and/or Propedium iodine (PI) at room temperature for 15 minutes. Apoptotic cells at early (Annexin V positive) or late stage (both Annexin V and PI positive) were detected by Flow Cytometry.

[10] = tested on: 786-0 renal cell carcinoma xenograft; test: 786-0 renal cell carcinoma xenograft mouse model; assay type: in vivo, nude mice; conditions: 25 mg/kg, ip
Procedure: To determine if Cpd 9 has anti-tumor effects, an in vivo study was conducted in a 786-0 renal cell carcinoma xenograft model, 786-0 cells (2×10^6) were inoculated subcutaneously into nude mice in the flank area and tumor growth was monitored with calipers via external measurements. Tumor volume was calculated using the formula volume=(length×width^2)/2. When the average tumor volume reached 400 mm^3, mice were randomly divided into 2 groups and treated with either DMSO (control) or Cpd 9 (25 mg/kg, ip) three times weekly (M, W, F) for two weeks.
To determine if Cpd 28 has anti-tumor effects, an in vivo study was conducted in a 786-0 renal cell carcinoma xenograft model, 786-0 cells (2×10^6) were inoculated subcutaneously into nude mice in the flank area and tumor growth was monitored with calipers via external measurements. Tumor volume was calculated using the formula volume=(length×width^2)/2. Treatment was started when tumors reached an average volume of 300 mm^3. […] DMSO was used as control since this was the vehicle the compounds were dissolved in. Tumor size was monitored twice weekly and body weight was monitored once weekly. Means and standard deviations were calculated and the Student t test method was used for statistical comparisons.

[11] = tested on: PC3 cells; test: PC3 prostate cancer cell proliferation (WST); assay type: cell-based; conditions: Homo sapiens, PC-3
Procedure: as §1, §2

[12] = tested on: MCF7 breast cancer cells; test: Mammosphere cancer stem cell inhibition assay; assay type: cell-based
Procedure: A mammosphere cancer stem cell inhibition assay was set up using literature methods (T. M. Phillips et al. J. Natl. Cancer I. 2006, 98, 1777-1785, “Mammalian target of rapamycin contributes to the acquired apoptotic resistance of human mesothelioma multicellular spheroids”) using a subset of MCF7 breast cancer cells that posses the ability to evade anchorage independent apoptosis. Commercially available MCF7 breast cancer cells were cultured in MEM supplemented with 0.01 mg/mL of bovine insulin and 10% FBS at 37° C. in humidified atmosphere (5% CO2). Floating cells in the 2-day cultures were collected, washed, and resuspended in DMEM-F12 (50:50) supplemented with 0.4% BSA, 5 μg/mL bovine insulin, 20 ng/mL bFGF, and 10 ng/mL EGF. Cells were then passed through a […] sieve to remove any cell clusters and adjusted to a density of 10,000 cells/mL. Approximately 500 cells were plated in quadruplicate in a sterile poly-HEMA-treated 96-well plate. Cells were then treated with either control or test solutions consisting of the kinase inhibitor Lapatinib (1 μM), Cpd 28 (1 or 10 μM), Cpd 55 (1 or 10 μM), The numbers of mammospheres (clusters of cells numbering more than 4 or 5 per cluster) were then counted after 5-7 days.

[13] = tested on: AKT Ser473 phosphorylation in renal cell carcinoma (786-O) Cell Line; test: pAKT Ser473 ELISA in 786-O cells stimulated by Bv8, VEGF, IGF; assay type: cell-based; conditions: Homo sapiens, 786-0, 786-O, read-out: Concentration Required to Inhibit pAKT to Half-maximal Levels
Procedure: (§7) This was followed by the addition of IGF, VEGF and Bv8 to 0.1 μg/mL, 0.1 μg/mL and 2.5 μg/mL respectively for another 30 minutes before harvesting the cells and making cell lysates with RIPA buffer keeping on ice, pAKT levels were measured in duplicate samples with Cell Signaling's Ser473 pAKT ELISA kit. Optical density plate readings of pAKT levels were made at 450 nm (OD450 nm) and were normalized by total protein amount of the cell lysates. The dose of compound at which pAKT levels are reduced to 50% of the non-treatment level was calculated using GraphPad Prism4 software and is listed in Tables 4 and 5 below.

[14] = tested on: AKT Ser473 phosphorylation in PC3 (prostate cancer) Cell Line; test: pAKT Ser473 ELISA in PC3 cells stimulated by Bv8, VEGF, IGF; assay type: cell-based; conditions: Homo sapiens, PC-3, PC3, read-out: Concentration Required to Inhibit pAKT to Half-maximal Levels
Procedure: as §7

[15] = tested on: PI-3 kinases; conditions: Vlahos et al. J. Biol. Chem. 1994; cited from earlier work
[16] = tested on: breast cancer stem cells; conditions: women with breast tumors with high HER2; decreased from 11%; cited from earlier work
[17] = IGF-1 stimulated PC3 cells, read-out: PC3 pAKT IC50
[18] = PC3 cells, read-out: IC50 pAKT (Pathway Inhibition)
[19] = 72 hours, read-out: IC50 PC3 Proliferation
[20] = 1 μM, separate experiment, control 32±6

IC50 [1]: 11600 nM
IC50 [2]: 1240 nM
IC50 [3, 17]: 550 nM
IC50 [3, 18]: 550 nM
IC50 [4]: 3190 nM
IC50 [5]: 4170 nM
IC50 [6]: 610 nM
IC50 [7]: 9530 nM
IC50 [8]: 5020 nM
SMILES: O=c1cc(N2CCOCC2)oc2c(-c3ccccc3)csc12 [Compound 6, 5-morpholino-3-phenyl-7H-thieno[3,2-b]pyran-7-one]

IC50 [1]: 5910 nM
IC50 [2]: 906 nM
IC50 [11, 19]: 2010 nM
IC50 [4]: 3070 nM
IC50 [5]: 2660 nM
IC50 [7]: 6240 nM
IC50 [8]: 3040 nM
SMILES: CN(C)c1ccc(-c2csc3c(=O)cc(N4CCOCC4)oc23)cc1 [Compound 9]
Early stage apoptotic cells ([9]; 5 μM): 7.76
Late stage apoptotic cells ([9]; 5 μM): 10.5
Total Apoptotic Cells ([9]; 5 μM): 18.26
Early stage apoptotic cells ([9]; 10 μM): 8.31
Late stage apoptotic cells ([9]; 10 μM): 11.62
Total Apoptotic Cells ([9]; 10 μM): 19.93
tumor growth reduction compared to control ([10]; 3×/wk, about two weeks, p<0.05): 93%
body weight change or other abnormalities ([10]; 3×/wk, two weeks): No significant body weight change or other abnormalities were observed

IC50 [3, 17]: 6320 nM
IC50 [11, 19]: 6290 nM
SMILES: Nc1cccc(-c2csc3c(=O)cc(N4CCOCC4)oc23)c1 [Compound 11]

IC50 [3, 17]: 5300 nM
IC50 [11, 19]: 15300 nM
SMILES: CS(=O)(=O)c1ccc(-c2csc3c(=O)cc(N4CCOCC4)oc23)cc1 [Compound 13]

IC50 ([13]; stimulant Bv8): 699 nM
IC50 ([13]; stimulant IGF): 4390 nM
IC50 ([13]; stimulant PBS): 918 nM
IC50 ([13]; stimulant VEGF): 498 nM
IC50 ([14]; stimulant Bv8): 941 nM
IC50 ([14]; stimulant IGF): 2120 nM
IC50 ([14]; stimulant PBS): 564 nM
IC50 ([14]; stimulant VEGF): 332 nM
IC50 [11, 19]: 1230 to 3140 nM
SMILES: CCOC(=O)c1ccc(-c2csc3c(=O)cc(N4CCOCC4)oc23)cc1 [Compound 25]
inhibition of mammosphere production versus control ([12]; 1 μM, separate experiment): approximately 69%
number of mammospheres [12, 20]: 12±3 mammospheres
inhibition of mammosphere production versus control ([12]; 10 μM, separate experiment): approximately 82%
number of mammospheres ([12]; 10 μM, separate experiment, control 32±6): 7±2 mammospheres

IC50 [3, 17]: 363 nM
IC50 [11, 19]: 8420 nM
SMILES: COc1ccc(C#Cc2csc3c(=O)cc(N4CCOCC4)oc23)cc1 [Compound 38]

IC50 [3, 18]: 1300 nM
IC50 ([11]; PC3 cells, read-out: PC3 IC50 Proliferation): 7500 to 12100 nM
IC50 [6]: 1060 nM
SMILES: O=c1cc(N2CCOCC2)oc2c(-c3ccccc3)cccc12 [LY294002, 2-morpholino-8-phenyl-4H-chromen-4-one, reference compound]
tumor growth inhibition compared to control ([10]; 3×/wk for 4 weeks): 54%
IC50 [15]: 1400 nM

SMILES: CS(=O)(=O)CCNCc1ccc(-c2ccc3ncnc(Nc4ccc(OCc5cccc(F)c5)c(Cl)c4)c3c2)o1 [Lapatinib, reference compound]
inhibition of mammosphere production versus control ([12]; 1 μM, first experiment): 33%
number of mammospheres ([12]; 1 μM, first experiment, control 38±4): 26±2 mammospheres
inhibition of mammosphere production versus control ([12]; 1 μM, separate experiment): 55%
number of mammospheres [12, 20]: 17±4 mammospheres
breast cancer stem cells in biopsies [16]: 5 % of cells
